The target in assay [1] is hNav1.7 (Homo sapiens (Human), UniProt Q15858). Kind of assay: Electrophysiology (EP) assay, whole-cell patch clamp in hNav1.7 expressing HEK-293 cells. It is filed as cell-based. Conditions: hNav1.7 HEK-293 cells; affinity for the inactivated state of the channel; read-out: Nav1.7 Activity (μM) EP assay Ki. For orientation: The patch-clamp technique gives a direct electrical read-out from membranes.

Assay [2] deals with human Nav1.7 (Homo sapiens (Human), UniProt Q15858). In words: FLIPR or FLIPR TETRA sodium dye assay with KCl and test article pre-incubation (sodium mobilization). Conditions: recombinant human Nav1.7 in HEK293; veratridine and scorpion venom as agonists. The format is cell-based.

Consider eleven compounds from US10738026B2, “Isoquinoline derivatives and use thereof” (Purdue Pharma L.P., priority 2014, dated 2020).

Sequence of hNav1.7 (Q15858 other isoform, or with tags, fused parts or gaps): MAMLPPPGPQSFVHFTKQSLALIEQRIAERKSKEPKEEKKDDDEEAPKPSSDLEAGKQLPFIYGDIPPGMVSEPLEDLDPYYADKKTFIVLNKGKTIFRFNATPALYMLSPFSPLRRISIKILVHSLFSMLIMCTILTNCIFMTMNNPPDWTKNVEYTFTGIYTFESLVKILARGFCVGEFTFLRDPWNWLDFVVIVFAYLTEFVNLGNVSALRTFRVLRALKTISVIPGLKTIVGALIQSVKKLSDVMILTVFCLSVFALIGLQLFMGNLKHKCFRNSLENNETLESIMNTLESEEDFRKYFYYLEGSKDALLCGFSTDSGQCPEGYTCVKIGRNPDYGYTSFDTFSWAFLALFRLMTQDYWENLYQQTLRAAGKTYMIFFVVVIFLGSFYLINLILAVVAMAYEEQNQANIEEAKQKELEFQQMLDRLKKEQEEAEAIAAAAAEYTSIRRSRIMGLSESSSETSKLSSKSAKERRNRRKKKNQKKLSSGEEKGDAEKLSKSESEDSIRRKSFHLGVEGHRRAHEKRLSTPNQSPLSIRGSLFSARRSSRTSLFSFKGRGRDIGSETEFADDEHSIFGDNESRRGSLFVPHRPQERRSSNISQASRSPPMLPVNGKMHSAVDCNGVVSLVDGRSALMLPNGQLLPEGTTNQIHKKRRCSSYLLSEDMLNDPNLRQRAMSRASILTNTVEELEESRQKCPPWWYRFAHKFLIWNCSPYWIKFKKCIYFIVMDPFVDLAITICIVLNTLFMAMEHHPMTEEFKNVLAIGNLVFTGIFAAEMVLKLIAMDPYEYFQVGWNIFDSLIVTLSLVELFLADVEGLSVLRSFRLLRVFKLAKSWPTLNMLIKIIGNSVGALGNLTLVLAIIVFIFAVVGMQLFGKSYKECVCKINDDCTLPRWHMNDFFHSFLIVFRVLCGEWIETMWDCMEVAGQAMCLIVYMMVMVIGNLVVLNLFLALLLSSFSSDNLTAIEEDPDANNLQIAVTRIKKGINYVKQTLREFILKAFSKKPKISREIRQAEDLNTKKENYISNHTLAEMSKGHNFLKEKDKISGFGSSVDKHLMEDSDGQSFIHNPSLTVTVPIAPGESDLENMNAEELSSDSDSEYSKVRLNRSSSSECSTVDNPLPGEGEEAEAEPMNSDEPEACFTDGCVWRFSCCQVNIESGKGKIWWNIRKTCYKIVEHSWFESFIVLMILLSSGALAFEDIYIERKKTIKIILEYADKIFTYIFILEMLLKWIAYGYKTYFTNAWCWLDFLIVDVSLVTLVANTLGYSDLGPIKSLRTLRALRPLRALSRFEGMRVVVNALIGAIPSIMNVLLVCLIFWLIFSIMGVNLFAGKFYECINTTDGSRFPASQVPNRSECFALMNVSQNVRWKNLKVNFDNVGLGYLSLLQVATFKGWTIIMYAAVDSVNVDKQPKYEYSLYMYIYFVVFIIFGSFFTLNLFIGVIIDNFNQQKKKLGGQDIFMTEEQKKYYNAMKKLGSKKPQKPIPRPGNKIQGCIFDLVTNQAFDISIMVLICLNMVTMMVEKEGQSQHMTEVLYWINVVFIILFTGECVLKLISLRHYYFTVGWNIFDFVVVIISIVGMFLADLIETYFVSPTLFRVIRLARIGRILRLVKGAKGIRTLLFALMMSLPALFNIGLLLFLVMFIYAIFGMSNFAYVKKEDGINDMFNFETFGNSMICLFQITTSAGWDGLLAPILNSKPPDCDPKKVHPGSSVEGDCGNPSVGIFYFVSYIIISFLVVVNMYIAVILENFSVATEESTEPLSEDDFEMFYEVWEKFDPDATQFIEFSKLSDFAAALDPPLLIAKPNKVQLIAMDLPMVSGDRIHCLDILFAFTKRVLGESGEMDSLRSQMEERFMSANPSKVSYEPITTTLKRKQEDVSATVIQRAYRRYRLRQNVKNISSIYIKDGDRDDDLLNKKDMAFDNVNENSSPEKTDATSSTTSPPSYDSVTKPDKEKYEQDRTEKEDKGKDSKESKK
Sequence of human Nav1.7 (Q15858 with tags, fused parts or gaps limits assumed): as the sequence (Q15858 other isoform, or with tags, fused parts or gaps) above

In general, IC50 refers to the midpoint of a concentration-inhibition curve. Regarding `C[C@H](Nc1cc(C(N)=O)nc(N2CCc3c(cccc3-c3ccc(C(F)(F)F)cc3)C2)n1)C(N)=O` [Compound 22, (S)-6-((1-amino-1-oxopropan-2-yl)amino)-2-(5-(4-(trifluoromethyl)phenyl)-3,4-dihydroisoquinolin-2(1H)-yl)pyrimidine-4-carboxamide], in assay [1], the Ki is 0.317 ± 0.079 µM. The 50% inhibitory concentration (IC50) in assay [2] was determined as 0.428 ± 0.069 µM.
With `C[C@H](Nc1cc(C(N)=O)nc(N2CCc3c(cccc3-c3ccc(C(F)(F)F)cn3)C2)n1)C(N)=O` [Compound 23, (S)-6-((1-amino-1-oxopropan-2-yl)amino)-2-(5-(5-(trifluoromethyl)-pyridin-2-yl)-3,4-dihydroisoquinolin-2(1H)-yl)pyrimidine-4-carboxamide], the 50% inhibitory concentration (IC50) in assay [2] is over 20 µM.
On the same count and under the same terms, the result for `C[C@H](Nc1cc(C(N)=O)nc(N2CCc3c(cccc3-c3ccccc3C(F)(F)F)C2)n1)C(N)=O` [Compound 24, (S)-6-((1-amino-1-oxopropan-2-yl)amino)-2-(5-(2-(trifluoromethyl)-phenyl)-3,4-dihydroisoquinolin-2(1H)-yl)pyrimidine-4-carboxamide] reads 2.35 ± 0.125 µM; that for `NC(=O)c1cccc(N2CCc3c(cccc3-c3ccc(C(F)(F)F)cc3)C2)n1` [Compound 25, 6-(5-(4-(trifluoromethyl)phenyl)-3,4-dihydroisoquinolin-2(1H)-yl)picolinamide], 0.987 ± 0.072 µM.
On to `NC(=O)[C@@H](O)[C@H](O)c1cccc(N2CCc3c(cccc3-c3ccc(C(F)(F)F)cc3)C2)n1` [Compound 26, (2S,3R)-2,3-dihydroxy-3-(6-(5-(4-(trifluoromethyl)phenyl)-3,4-dihydroisoquinolin-2(1H)-yl)pyridin-2-yl)propanamide], for which the Ki in assay [1] stood at 0.051 ± 0.014 µM. Also, in assay [2], the IC50 was 0.251 ± 0.017 µM.
`C[C@H](Nc1cc(C(N)=O)nc(N2CCc3c(cccc3-c3cccc(C(F)(F)F)c3)C2)n1)C(N)=O` [Compound 27, (S)-6-((1-amino-1-oxopropan-2-yl)amino)-2-(5-(3-(trifluoromethyl)phenyl)-3,4-dihydroisoquinolin-2(1H)-yl)pyrimidine-4-carboxamide]: in assay [1], the Ki turned out to be 0.24 ± 0.041 µM. Also, the half-inhibitory concentration (IC50) in assay [2] was found to be 1.52 ± 0.122 µM.
In the case of `C[C@H](Nc1cc(C(N)=O)nc(N2CCc3c(cccc3C3=CCCCC3)C2)n1)C(N)=O` [Compound 28, (S)-6-((1-amino-1-oxopropan-2-yl)amino)-2-(5-(cyclohex-1-en-1-yl)-3,4-dihydroisoquinolin-2(1H)-yl)pyrimidine-4-carboxamide], the 50% inhibitory concentration (IC50) in assay [2] turned out to be 2.84 ± 0.112 µM.
As to `O=S(=O)(Nc1ncns1)c1cccc(N2CCc3c(cccc3-c3ccc(C(F)(F)F)cc3)C2)n1` [Compound 29, N-(1,2,4-thiadiazol-5-yl)-6-(5-(4-(trifluoromethyl)phenyl)-3,4-dihydroisoquinolin-2(1H)-yl)pyridine-2-sulfonamide], the Ki in assay [1] worked out at 0.535 ± 0.145 µM. In assay [2], the 50% inhibitory concentration (IC50) came out at 0.291 ± 0.019 µM.
`C[C@H](Nc1cc(C(N)=O)nc(N2CCc3c(cccc3C3CCCCC3)C2)n1)C(N)=O` [Compound 31, (S)-6-((1-amino-1-oxopropan-2-yl)amino)-2-(5-cyclohexyl-3,4-dihydroisoquinolin-2(1H)-yl)pyrimidine-4-carboxamide]: the IC50 in assay [2] turned out to be 2.2 ± 0.898 µM.
`NC(=O)c1cc(N2CCc3c(cccc3-c3ccc(C(F)(F)F)cc3)C2)cc([C@H](O)CO)n1` [Compound 35, (S)-6-(1,2-dihydroxyethyl)-4-(5-(4-(trifluoromethyl)phenyl)-3,4-dihydroisoquinolin-2(1H)-yl)picolinamide]: the Ki in assay [1] turned out to be 0.232 ± 0.065 µM. For the same compound, in assay [2], the IC50 worked out at 0.502 ± 0.031 µM.
On to `NC(=O)c1cc(N2CCc3c(cccc3-c3ccc(C(F)(F)F)cc3)C2)cc([C@@H](O)CO)n1` [Compound 36, (R)-6-(1,2-dihydroxyethyl)-4-(5-(4-(trifluoromethyl)phenyl)-3,4-dihydro-isoquinolin-2(1H)-yl)picolinamide], for which the Ki in assay [1] amounted to 0.257 ± 0.046 µM. In addition, in assay [2], the IC50 worked out at 1.54 ± 0.229 µM.
